Experimental data as given in US20210038732A1, “ANTICANCER MICRORNA AND LIPID FORMULATIONS THEREOF” (INTERNA TECHNOLOGIES B.V., priority 2018, published 2021).

Key:
[1] = tested on: genes downregulated in at least three cell lines; assay: Annotation clustering of downregulated genes with DAVID software; set-up: species or system human
Text: For clustering and pathway analysis, a bigger gene set was required. […] Other clusters contained genes with roles in angiogenesis, unfolded protein response, chemotaxis, protein transport, nucleoside metabolism, glycosylation, oncogenesis, wound healing. […] These 161 genes are ERMP1, MCL1, ZDHHC18, KIAA1147, IDS, EIF4B, ETS1, TXLNA, NT5E, WSB2, PLAUR, LRRC40, PTPLB, SLC15A1, NCEH1, IL17RD, STMN1, AIMP2, PHACTR2, GALNT1, LAMC2, SCP2, SLC26A2, LUZP1, SHMT2, UBP1, PHLDA2, ST5, ENDOD1, CGNL1, MARCKSL1, RAB11FIP5, CCND1, RUSC1, FAM168B, ZC3H7B, PPTC7, SLC39A5, ACSS2, TPP1, HYOU1, DCTN5, CRKL, WDFY2, WDR82, SLC6A12, CDK6, SULF2, TWISTNB, ATP5F1, ALDH9A1, TOR4A, NET1, RSF1, NUP50, ZMAT3, AP2M1, MPP2, ITGB3, GALNT14, SLC35D1, PPARGC1A, TBL1XR1, MSANTD3, CLSTN1, PITPNB, CECR2, KIAA1644, ARHGAP29, KIAA1191, GREB1, PIK3R1, TNFRSF21, SEPN1, SYNRG, LRP4, ZNF365, CRYAA, MED21, GNAI3, ATP5SL, UBE2L6, ANKRD13A, GCH1, NIPA1, TRIM62, USP39, HEG1, DCAF7, LRRC8A, SOX5, IRF1, MORC4, UNC119B, FAF2, SLC30A1, C1QBP, ST3GAL4, TRIB2, TBC1D5, TMPPE, MAPK8, CBX1, CADM1, CCDC28A, YWHAZ, ERAP2, STON2, AP5M1, TGFB2, CYTH1, FAM20B, DPY19L1, ARHGAP19, LPAR3, LMLN, NUDT15, PLAU, VAMP8, HHAT, AGPAT1, ATP8B2, ACPL2, SCAMP4, LAT2, OSMR, NUDT21, HPRT1, STARD7, GABPA, CDC42EP2, THBS4, ATP6V1B2, PRNP, GFPT1, MAX, KRAS, CNOT6, NUDT3, RFWD3, APPL1, SLC23A2, BOD1, PDE3A, SLC30A7, CEP41, NOTCH2, RGS2, CDC42EP4, TP53INP1, SQSTM1, DDAH1, SLC35D2, FOCAD, GPATCH11, CBL, TMEM30B, HFE, PLEKHB2, ARPC5, and ABI2. Among these genes, NT5E, TNFRSF21, YWHAZ, MAPK8, PLAU, PLAUR, NOTCH2, ETS1, IL17RD, CDK6, EIF4B, and MCL1 are particularly interesting for their crucial involvement in the cell cycle pathway, in immune activation, as well as in cell movement. […] ETS1, YWHAZ, MPP2, PLAU, CDK4, CDK6, EIF4B, RAD51, CCNA2, STMN1, and DCAF7 are of particular interest for their crucial involvement in regulation of the cell cycle.

[2] = tested on: MPP2, STMN1, YWHAZ, and CCNA2; assay: Expression of G2/M related target genes by RT-PCR; assay type: cell-based, human; conditions: 10 nM; Hep3B, SNU449 and H1975; 24h, 48h and 72h; vs mock
Procedure: To prepare cDNA, first 100 ng total RNA was mixed with Random Hexamers (Qiagen; final concentration 2 μM) in a final volume of 12.5 μl in NFW, denatured for 5 min at 70° C. and immediately cooled on ice. Next, 7.5 μl of a cDNA synthesis mix was added, consisting of 4 μl 5×RT Buffer (Promega), 0.4 μl 25 mM dNTPs (Promega), 1 μl 200 U/μL MMLV RT-enzyme (Promega), 0.5 μL 40 U/μL RNAse Inhibitor (Promega) and 1.6 μL NFW. The following cDNA synthesis protocol was used:
Similar phenotype has been observed in Panc1 (pancreatic cancer cell) as well as H1975 (lung cancer cell) (data not shown). […] MPP2 and STMN1 associate with cytoskeleton and therefore regulate cell division and proliferation at the G2/M phase, while YWHAZ and CCNA2 play roles in regulation of G2/M phase checkpoint by binding and sequestering the cyclin-dependent kinases.

4T1 = assay: Cell viability (MTS assay or cell count); assay type: cell-based, mouse; conditions: 10 nM; TNBC 4T1; normalized to mock
Procedure: Depending on cancer cell type 3000-6000 cells were seeded in a 96 well plate. After cells attached, they were transfected with different concentrations of miRNA-193a and viability was measured at different time points. Viability measurement was performed using CellTiter 96 AQueous One Solution Cell Proliferation Assay (Promega). 20 μL of MTS reagent was added to 100 μL of media in each well in 96-well plate and incubated for 2 hours at 37° C. Absorbance was measured at 490 nm for each sample in 96 well plate reader.
Different biological effects of miRNA-193a-3p have been tested in various cancer cell lines (see Table 13). For this, various cells were treated with miRNA-193a at different concentrations (1, 3, 10 nM). For all experiments controls (untreated, mock and scrambled) were measured. […] Data shown in Table 13 are the results for miRNA-193a at 10 nM concentration at indicated time points. All the results have been quantified and normalized to the mock control.
miRNA-193a treatment in various cancer cell lines decreased cell viability over time as measured by either an MTS assay or by cell count. It enhanced apoptosis induction over time as measured by a caspase 3/7 apoptosis assay. […] It is of note that due to intrinsic characteristics and gene mutation status of each cell line, performing one method to detect apoptosis is not always ideal for all cell lines.

For “miRNA-193a: duplex of the miRNA-193a-3p of SEQ ID NO: 218 (mimic, sense) with antisense strand SEQ ID NO: 219; naked in vitro, formulated in vivo (sense UGGGACUUUGUAGGCCAGUUTT; antisense AACUGGCCUACAAAGUCCCAGU; chemistry not given here; listed as Homo sapiens)”, the “Enrichment score (ES)” value ([1]; Gene cluster Angiogenesis) was 2.17, the “Enrichment score (ES)” value ([1]; Gene cluster Apoptosis) was 2.55 and the “Enrichment score (ES)” value ([1]; Gene cluster Chemotaxis) was 1.66. For the same substance, the “Enrichment score (ES)” value ([1]; Gene cluster Glycosylation) was 1.47, the “Enrichment score (ES)” value ([1]; Gene cluster Immune activation) was 1.16 and the “Enrichment score (ES)” value ([1]; Gene cluster Nucleoside metabolism) was 1.49. For the same substance, the “Enrichment score (ES)” value ([1]; Gene cluster Oncogenesis) was 1.37, the “Enrichment score (ES)” value ([1]; Gene cluster Protein transport) was 1.51 and the “Enrichment score (ES)” value ([1]; Gene cluster Unfolded protein response) was 1.84. The “Enrichment score (ES)” value ([1]; Gene cluster Wound healing) was 1.18, the “Expression level of G2/M related target genes” value [2] was “down-regulated” and the “Viability (96 h)” value (4T1) was “↓ (Viability > 50%)”.
